The values that follow come from paper PMC3106281 (Analytical biochemistry, 2010).

In brackets after ≈: the same amount, converted by molar mass. Read-outs that look alike come from different tables or passages of the source. Bridge positions count the residues as written; N and C are the ends. Square brackets hold non-standard residues; d marks the D form. Peptide text beside a SMILES is read from it. * marks the point of attachment. X1 = CC[C@H](C)CCCCC(=O)*; Dab = NCC[C@H](N)C(=O)O

One assay relates to A. baumannii ATCC 19606. The format is cell-based, Acinetobacter baumannii. To be noted: broth microdilution. For orientation: Dilution methods test growth across graded concentrations, often in twofold steps.
In assay [1] the test system is colistin-resistant A. baumannii clinical isolate. The format is cell-based, Acinetobacter baumannii. The settings on record: broth microdilution.
Assay [2] deals with colistin-resistant P. aeruginosa clinical isolate. Format: cell-based, Pseudomonas aeruginosa. The settings on record: broth microdilution, two replicates.
The subject of another assay is K. pneumoniae ATCC 13883. The format is cell-based, Klebsiella pneumoniae. To be noted: broth microdilution.
Assay [3] deals with colistin-resistant K. pneumoniae clinical isolate. The format is cell-based, Klebsiella pneumoniae. The settings on record: broth microdilution.
A short description of assay [4]: Isothermal titration calorimetry. Format: binding, Escherichia coli. To be noted: ITC, 37°C. A general note: ITC needs no label: the signal is the heat of the interaction.
For assay [5] the following is noted: ref [52], cited from earlier work.
The conditions of assay [6]: above the Tc; ref [54]; cited from earlier work.
A short description of assay [7]: Fluorometric assay, purified LPS. The format is binding. The settings on record: E. coli, K. pneumoniae, S. enterica (and P. aeruginosa) LPS.
A further assay concerns bacteria. The settings on record: ref [47]; [48]; cited from earlier work.

What is called MIC is the smallest concentration in the dilution series that meets the test's criterion for growth inhibition.

For the compound `CC[C@H](C)CCCCC(=O)N[C@@H](CCN)C(=O)N[C@H](C(=O)N[C@@H](CCN)C(=O)N[C@H]1CCNC(=O)[C@H]([C@@H](C)O)NC(=O)[C@H](CCN)NC(=O)[C@H](CCN)NC(=O)[C@H](CC(C)C)NC(=O)[C@@H](CC(C)C)NC(=O)[C@H](CCN)NC1=O)[C@@H](C)O` [Colistin, colistin] (X1-[Dab]T[Dab][Dab][Dab][dL]L[Dab][Dab]T; lactam 4-C (inferred); N-terminus assumed), the MIC against A. baumannii ATCC 19606 was 1 µg/mL (≈ 0.855 µM); in [1] it was 16 µg/mL (≈ 13.7 µM); in assay [2] it was over 128 µg/mL; with K. pneumoniae ATCC 13883, 1 µg/mL (≈ 0.855 µM); in assay [3], over 128 µg/mL.

Turning to polymyxin B [PmB], the “Absolute peptide concentration in the cell where saturation began” value in assay [4] (LPS 125 μM, 14th injection (PmB), 18th injection (DPmB3)) amounted to 98 µM. The ΔH1 in assay [4] (first set of sites, 20 mM HEPES pH 7.0, two-site model) was -1.5 ± 0.4 kcal/mol. Besides, the ΔS1 in [4] (first set of sites, calculated from ΔH and ΔG0) is on record as 6.9 kcal/mol. In assay [4] (second set of sites, 20 mM HEPES pH 7.0, two-site model), this compound displayed a ΔH2 of -12 ± 3.7 kcal/mol. Moreover, the ΔS2 in [4] (second set of sites, calculated from ΔH and ΔG0) was -1.8 kcal/mol. Also, the “Calorimetric reaction with LPS” value was “endothermic” in [5] (temperatures ≤30°C, below Tc of LPS); “exothermic” in assay [5] (≥35°C, above phase transition temperature, [53]); “endothermic” in assay [6].

Take polymyxin B nonapeptide [PBN]: the “Binding affinity for isolated LPS, comparison in words” value in assay [7] is listed as “lowest binding affinity for LPS”. Also, the Antibacterial activity entry with bacteria is “negligible antibacterial activity”.
